This note sets out measurements from ChEMBL document CHEMBL1201862, “PubChem BioAssay data set” (2004).

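Protocol summary: plate cells (96-well), add compound at 5 concentrations, incubate 48 h, interpolate endpoints linearly. GI50 = concentration required for 50% inhibition of growth.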 The source made the active and inactive calls. Cut-off read from the data, not from the text of the source: active = GI50 up to about 1.1 µM and inactive = higher. Where only a bound is given, the exact number is not on record here.

Some test systems named below: A498; A549; ACHN; EKVX; HT-29; M14; MCF7; MDA-MB-435; NCI-H226; NCI-H23; PC-3; RXF 393; SF-295; SK-MEL-28; SK-MEL-2; SK-MEL-5; SR; TK-10; UO-31; HL-60.
Common to all, as to experiment: NCI anticancer screen, dose series, 48 h

Regarding `CC(C)(C)c1ccc(CN2CCN(C(c3ccccc3)c3ccc(Cl)cc3)CC2)cc1` (stereo unspecified), the GI50 in the experiment on A498 was > 100 µM (inactive); in the experiment with A549, 32.5 µM (inactive); with ACHN it was 68.5 µM (inactive); with EKVX, 32.1 µM (inactive); with HT-29, 20.3 µM (inactive); in the experiment with M14, 33.4 µM (inactive). Also, the GI50 is 40.6 µM (inactive) with MCF7; 57.9 µM (inactive) in the experiment with MDA-MB-435; 22.1 µM (inactive) in the experiment with NCI-H226; 83.6 µM (inactive) in the experiment with NCI-H23; 57.3 µM (inactive) with PC-3; 24.4 µM (inactive) in the experiment on RXF 393. The GI50 in the experiment with SF-295 was 37.9 µM (inactive); in the experiment with SK-MEL-28, 65.5 µM (inactive); with SK-MEL-2, 31 µM (inactive); in the experiment on SK-MEL-5, 27 µM (inactive); in the experiment on SR, 62.2 µM (inactive); in the experiment with TK-10, > 100 µM (inactive). In addition, the GI50 in the experiment on UO-31 was 63.5 µM (inactive).

As to `COc1cc(C2C3=C(COC3=O)OC(C)(C)Oc3cc4c(cc32)OCO4)cc(OC)c1OC` (stereo unspecified), the GI50 was 0.281 µM (active) in the experiment on A498; 0.344 µM (active) in the experiment on A549; 0.682 µM (active) in the experiment with ACHN; 0.366 µM (active) in the experiment on EKVX; 0.236 µM (active) in the experiment with HL-60; 0.258 µM (active) in the experiment on HT-29. The GI50 is 0.281 µM (active) in the experiment on M14; 0.415 µM (active) in the experiment on MCF7; 0.167 µM (active) with MDA-MB-435; 0.885 µM (active) with NCI-H226; 0.384 µM (active) in the experiment with NCI-H23; 0.344 µM (active) with PC-3. Further, the GI50 was 0.259 µM (active) in the experiment on RXF 393; 0.222 µM (active) with SF-295; 0.296 µM (active) in the experiment on SK-MEL-28; 0.673 µM (active) in the experiment on SK-MEL-2; 0.348 µM (active) in the experiment with SK-MEL-5; 0.195 µM (active) in the experiment on SR. Moreover, in the experiment on UO-31, the GI50 is 0.426 µM (active).

Consider `Nc1ccc2nc3ccc(N)cc3[n+](-c3ccccc3)c2c1`, for which the GI50 was > 100 µM (inactive) in the experiment with A498; 45.4 µM (inactive) with A549; 72.3 µM (inactive) in the experiment with ACHN; > 100 µM (inactive) in the experiment with EKVX; > 100 µM (inactive) with HL-60; 21.2 µM (inactive) in the experiment on HT-29. For the same compound, the GI50 in the experiment on M14 was 30.2 µM (inactive); in the experiment on MCF7, 5.07 µM (inactive); in the experiment with MDA-MB-435, 50.4 µM (inactive); with NCI-H23, 22.8 µM (inactive); in the experiment on PC-3, 29.3 µM (inactive); in the experiment on RXF 393, > 100 µM (inactive). The GI50 in the experiment with SF-295 was 33.3 µM (inactive); in the experiment with SK-MEL-28, > 100 µM (inactive); in the experiment on SK-MEL-2, 34.5 µM (inactive); in the experiment on SK-MEL-5 it was 25.6 µM (inactive); with SR it was 98.6 µM (inactive); with TK-10, > 100 µM (inactive). Also, in the experiment with UO-31, the GI50 was > 100 µM (inactive).

Consider `CC(=O)CC1(CBr)Nc2ccc([N+](=O)[O-])cc2NC1=O` (stereo unspecified), for which the GI50 in the experiment on A498 was > 100 µM (inactive); with A549, > 100 µM (inactive); with ACHN, > 100 µM (inactive); with EKVX it was > 100 µM (inactive); with HT-29 it was 90.4 µM (inactive); in the experiment on M14, > 100 µM (inactive). Further, the GI50 in the experiment on MCF7 is 40.9 µM (inactive); in the experiment with MDA-MB-435, > 100 µM (inactive); with NCI-H226 it was > 100 µM (inactive); with NCI-H23, > 100 µM (inactive); in the experiment with PC-3 it was 60.4 µM (inactive); with RXF 393, 32.7 µM (inactive). For the same compound, the GI50 in the experiment with SF-295 is > 100 µM (inactive); with SK-MEL-28, 97.7 µM (inactive); in the experiment with SK-MEL-2, > 100 µM (inactive); in the experiment on SK-MEL-5, > 100 µM (inactive); with SR, 34 µM (inactive); in the experiment on TK-10 it was 82.2 µM (inactive). Also, in the experiment on UO-31, the GI50 is 61.9 µM (inactive).

Turning to `COc1cc(/C=N\O)nc(-c2ccccn2)c1`, the GI50 in the experiment on A498 is 1.3 µM (inactive); in the experiment with A549, 0.344 µM (active); in the experiment with ACHN, 0.0923 µM (active); with EKVX, 0.195 µM (active); in the experiment with HL-60 it was 0.124 µM (active); in the experiment on HT-29 it was 0.569 µM (active). For the same compound, the GI50 with M14 is 0.259 µM (active); in the experiment on MCF7 it was 0.474 µM (active); in the experiment with MDA-MB-435, 1.6 µM (inactive); with NCI-H226 it was 0.363 µM (active); in the experiment on NCI-H23, 0.51 µM (active); in the experiment on PC-3, 2.43 µM (inactive). The GI50 was 0.363 µM (active) with RXF 393; 0.339 µM (active) in the experiment on SF-295; 0.729 µM (active) in the experiment with SK-MEL-28; 0.298 µM (active) with SK-MEL-5; 0.0438 µM (active) in the experiment on SR; > 30.8 µM (inactive) in the experiment with TK-10. Besides, the GI50 in the experiment with UO-31 was 0.161 µM (active).

In the case of `COc1ccc2c(c1)C(N)=C(c1ccccc1)C2=O`, the GI50 with A498 was > 100 µM (inactive); with A549, 64.6 µM (inactive); in the experiment with ACHN, 33.9 µM (inactive); in the experiment with EKVX it was > 100 µM (inactive); in the experiment with HL-60, > 100 µM (inactive); in the experiment with HT-29, > 100 µM (inactive). Besides, the GI50 in the experiment on M14 was > 100 µM (inactive); with MCF7 it was > 100 µM (inactive); in the experiment on MDA-MB-435 it was > 100 µM (inactive); in the experiment on NCI-H226, 87.9 µM (inactive); in the experiment on NCI-H23, 38.8 µM (inactive); with PC-3, > 100 µM (inactive). Further, the GI50 in the experiment on SF-295 is 97.1 µM (inactive); with SK-MEL-28, > 100 µM (inactive); with SK-MEL-2, > 100 µM (inactive); in the experiment with SK-MEL-5, 49.1 µM (inactive); with SR, 8.75 µM (inactive); in the experiment with TK-10, > 100 µM (inactive).

Take `CCOC(=O)c1c(Br)c(-c2ccc([N+](=O)[O-])cc2)c(Br)n1C`: the GI50 with A498 is > 10 µM (inactive); in the experiment on A549 it was > 10 µM (inactive); in the experiment on ACHN it was > 10 µM (inactive); in the experiment on EKVX, 9.55 µM (inactive); in the experiment on HL-60, > 10 µM (inactive); in the experiment on HT-29, > 10 µM (inactive). The GI50 in the experiment with M14, in the experiment on MCF7, in the experiment on MDA-MB-435, in the experiment with NCI-H226, with NCI-H23 and in the experiment on PC-3 was > 10 µM (inactive) each time. Moreover, the GI50 in the experiment with SF-295, in the experiment on SK-MEL-28, in the experiment on SK-MEL-2, in the experiment on SK-MEL-5, with SR and in the experiment with TK-10 was > 10 µM (inactive) each time. The GI50 with UO-31 is 9.16 µM (inactive).

With `COc1ccc(/C=C2\C[C@H]3[C@@H]4CC=C5C[C@@H](OC(C)=O)CC[C@]5(C)[C@H]4CC[C@]3(C)C2=O)cc1OC`, the GI50 with A498 was 33 µM (inactive); in the experiment on A549, 28.5 µM (inactive); with ACHN, 49.5 µM (inactive); in the experiment on EKVX it was 15.7 µM (inactive); in the experiment on HL-60, 16.7 µM (inactive); in the experiment with HT-29, 41.2 µM (inactive). For the same compound, the GI50 in the experiment on M14 was 66.4 µM (inactive); with MCF7, 38.4 µM (inactive); in the experiment on MDA-MB-435, 48.4 µM (inactive); with NCI-H226, 48.2 µM (inactive); with NCI-H23, 70 µM (inactive); in the experiment on PC-3, 55.1 µM (inactive). Moreover, the GI50 with RXF 393 is 69.5 µM (inactive); in the experiment with SF-295, 0.47 µM (active); with SK-MEL-28 it was > 100 µM (inactive); in the experiment on SK-MEL-2 it was 31.1 µM (inactive); in the experiment on SK-MEL-5, 10.6 µM (inactive); with SR, 24.7 µM (inactive). Moreover, the GI50 in the experiment on UO-31 is 12.2 µM (inactive).

For the compound `O=C(Nn1c(-c2ccccc2)nc2ccccc2c1=O)c1ccc(O)cc1`, the GI50 was > 100 µM (inactive) with A498; > 100 µM (inactive) in the experiment with A549; > 100 µM (inactive) with ACHN; 61 µM (inactive) in the experiment with EKVX; > 100 µM (inactive) with HL-60; > 100 µM (inactive) in the experiment on HT-29. Also, the GI50 in the experiment on M14, in the experiment on MCF7, in the experiment with MDA-MB-435, in the experiment on NCI-H226, with NCI-H23 and with PC-3 was > 100 µM (inactive) each time. Besides, the GI50 with RXF 393, with SF-295, in the experiment with SK-MEL-28, in the experiment with SK-MEL-5, in the experiment with SR and in the experiment with TK-10 was > 100 µM (inactive) in each case. In addition, the GI50 in the experiment with UO-31 was > 100 µM (inactive).

Regarding `CC(CO)CCNc1ncnc2c1ncn2CCC(=O)O` (stereo unspecified), the GI50 in the experiment on A498, in the experiment with A549, in the experiment with ACHN, in the experiment with EKVX, in the experiment with HL-60 and with HT-29 was > 100 µM (inactive) throughout. Further, the GI50 in the experiment on M14, in the experiment on MCF7, in the experiment on MDA-MB-435, in the experiment on NCI-H226, in the experiment with NCI-H23 and with PC-3 was > 100 µM (inactive) each time. Also, the GI50 in the experiment on RXF 393, with SF-295, in the experiment on SK-MEL-28, in the experiment with SK-MEL-5, with SR and in the experiment on TK-10 was > 100 µM (inactive) in each case. For the same compound, the GI50 in the experiment with UO-31 was > 100 µM (inactive).

As to `O=C1CC(c2ccccc2Cl)Oc2ccccc21` (stereo unspecified), the GI50 in the experiment on A498 was > 100 µM (inactive); in the experiment on EKVX it was 14 µM (inactive); in the experiment with HL-60, 32.4 µM (inactive); with HT-29, 10.8 µM (inactive); in the experiment on M14, 25.9 µM (inactive); in the experiment with MCF7, 11.4 µM (inactive). Moreover, the GI50 is 18.5 µM (inactive) with MDA-MB-435; 3.84 µM (inactive) with NCI-H226; 31.3 µM (inactive) in the experiment on PC-3; 17.2 µM (inactive) with RXF 393; 40.6 µM (inactive) in the experiment with SF-295; > 100 µM (inactive) in the experiment on SK-MEL-28. The GI50 in the experiment with SK-MEL-2 is 19.9 µM (inactive); in the experiment with SK-MEL-5, 32.8 µM (inactive); with SR, 23.2 µM (inactive); in the experiment on TK-10, 98.6 µM (inactive); in the experiment with UO-31 it was 57.5 µM (inactive).
